Laboratory results: patent US12590099B2, “Inhibitors of histone deacetylase useful for the treatment or prevention of HIV infection” (Merck Sharp & Dohme LLC, priority 2018, dated 2026)
Like-named read-outs stand apart in the source and are kept apart here.

Tests used:
KARN cells (Jurkat 2C4) = experiment: cells; type: cell-based; details: luciferase induction, 100% = 2 μM SAHA
Procedure, shortened: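 Luminescence (Steady-Glo, 10 min, room temperature) measured next day in KARN Jurkat 2C4 cells given compounds at up to 40 μM final with 0.4% DMSO. Percent activation normalised to DMSO (0%) and 2 μM SAHA (100%), fitted by 4-parameter curve.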

Recombinant human HDAC1 = biological target: T1, Recombinant human HDAC1 (Homo sapiens, UniProt Q13547); experiment: Human HDAC enzyme inhibitor Fluor-de-Lys assay, HDAC1; type: biochemical; details: recombinant human HDAC1, Fluor-de-Lys assay
T1 construct: FLAG (C); made in house
Procedure, shortened: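 Fluor-de-Lys format at room temperature (23° C.): compounds titrated 10-point, 1:3, preincubated with HDAC before substrate addition; HDAC1 run at 0.3 nM enzyme with 20 μM BML-KI104. Developer with excess HDAC inhibitor ends the reaction, and trypsin-liberated AMC fluorescence is the read-out.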

Recombinant human HDAC2 = biological target: T2, Recombinant human HDAC2 (Homo sapiens, UniProt Q92769); experiment: Human HDAC enzyme inhibitor Fluor-de-Lys assay, HDAC2; type: biochemical; details: recombinant human HDAC2, Fluor-de-Lys assay
T2 construct: Full length human HDAC2-FLAG was expressed in baculovirus infected Sf9 cells; FLAG (C); made in house; host or cells: Sf9 (baculovirus)
Procedure, shortened: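 Fluor-de-Lys format at room temperature (23° C.): compounds titrated 10-point, 1:3, preincubated with HDAC before substrate addition. Developer with excess HDAC inhibitor ends the reaction, and trypsin-liberated AMC fluorescence is the read-out.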

Recombinant human HDAC8 = biological target: T3, Recombinant human HDAC8 (Homo sapiens, UniProt Q9BY41); experiment: Human HDAC enzyme inhibitor Fluor-de-Lys assay, HDAC8; type: biochemical; details: recombinant human HDAC8, Fluor-de-Lys assay
T3 construct: purchased Enzo Life Sciences BML-SE145-0100
T3 sequence (Q9BY41 1-377): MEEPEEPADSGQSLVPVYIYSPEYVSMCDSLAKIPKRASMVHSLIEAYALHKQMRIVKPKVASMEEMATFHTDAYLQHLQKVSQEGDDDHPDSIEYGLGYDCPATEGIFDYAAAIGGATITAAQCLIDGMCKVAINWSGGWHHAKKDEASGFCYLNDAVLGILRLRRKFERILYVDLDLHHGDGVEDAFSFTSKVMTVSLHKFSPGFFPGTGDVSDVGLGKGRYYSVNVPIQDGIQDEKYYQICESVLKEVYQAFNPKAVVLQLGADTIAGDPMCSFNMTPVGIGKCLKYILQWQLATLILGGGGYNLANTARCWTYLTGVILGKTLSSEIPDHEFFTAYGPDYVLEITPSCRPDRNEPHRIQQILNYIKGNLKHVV

[1] = Homo sapiens, Jurkat, read-out: Karn EC50 (nM) 0.1% NHS, 0.1% normal human serum
[2] = Homo sapiens, Jurkat, read-out: Karn EC50 (nM) 5% NHS, 5% normal human serum
[3] = read-out: Karn EC50 (nM) 0.1% NHS, 0.1% normal human serum
[4] = read-out: Karn EC50 (nM) 5% NHS, 5% normal human serum

T1 sequence (Q13547 whole entry): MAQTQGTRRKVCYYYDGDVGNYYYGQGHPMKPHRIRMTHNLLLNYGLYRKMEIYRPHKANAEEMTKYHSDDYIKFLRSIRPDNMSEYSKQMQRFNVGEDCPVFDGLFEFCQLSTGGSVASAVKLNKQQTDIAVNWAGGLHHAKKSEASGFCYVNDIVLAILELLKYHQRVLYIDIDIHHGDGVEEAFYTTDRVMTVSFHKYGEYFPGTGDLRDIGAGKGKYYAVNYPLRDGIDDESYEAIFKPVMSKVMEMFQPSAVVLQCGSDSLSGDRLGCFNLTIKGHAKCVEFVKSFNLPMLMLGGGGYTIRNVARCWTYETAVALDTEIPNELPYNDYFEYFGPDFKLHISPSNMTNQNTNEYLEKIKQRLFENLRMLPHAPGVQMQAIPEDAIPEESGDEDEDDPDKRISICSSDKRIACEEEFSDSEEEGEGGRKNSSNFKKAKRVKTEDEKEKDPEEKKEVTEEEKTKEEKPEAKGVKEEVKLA
T2 sequence (Q92769 whole entry): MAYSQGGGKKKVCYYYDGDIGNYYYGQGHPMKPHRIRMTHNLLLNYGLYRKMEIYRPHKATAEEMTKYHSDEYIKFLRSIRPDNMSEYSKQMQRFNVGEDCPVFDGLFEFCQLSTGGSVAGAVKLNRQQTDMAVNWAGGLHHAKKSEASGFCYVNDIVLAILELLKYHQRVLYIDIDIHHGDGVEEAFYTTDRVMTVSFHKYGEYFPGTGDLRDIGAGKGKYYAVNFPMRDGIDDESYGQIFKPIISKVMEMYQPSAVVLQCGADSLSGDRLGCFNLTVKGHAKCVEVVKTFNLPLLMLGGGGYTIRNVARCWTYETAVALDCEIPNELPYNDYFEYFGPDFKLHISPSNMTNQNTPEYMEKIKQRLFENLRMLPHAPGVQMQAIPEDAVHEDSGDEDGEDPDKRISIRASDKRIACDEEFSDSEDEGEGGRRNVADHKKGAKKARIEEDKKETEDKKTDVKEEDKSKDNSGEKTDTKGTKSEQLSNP

| SMILES | EC50 (KARN cells (Jurkat 2C4); [1]) | EC50 (KARN cells (Jurkat 2C4); [2]) | IC50 (Recombinant human HDAC1) | IC50 (Recombinant human HDAC2) | IC50 (Recombinant human HDAC8) | EC50 (KARN cells (Jurkat 2C4); [3]) | EC50 (KARN cells (Jurkat 2C4); [4]) |
| --- | --- | --- | --- | --- | --- | --- | --- |
| CCC(=O)CCCCC[C@H](NC(=O)C1CC12CCOCC2)c1ncc(-c2cc3ccc(C)nc3cc2OC)[nH]1 (single isomer, unassigned) [Compound 407] | 336 nM | 977 nM | 0.9 nM | 20.2 nM | > 900 nM | – | – |
| CCC(=O)CCCCC[C@H](NC(=O)C1CC12CCOCC2)c1ncc(-c2cc3ccc(C)nc3cc2OC)o1 (single isomer, unassigned) [Compound 409] | 811 nM | 1860 nM | 10.5 nM | 100 nM | > 900 nM | – | – |
| CCC(=O)CCCCC[C@H](NC(=O)C1CC12CCOCC2)c1ncc(-c2cc3ccc(C)nc3cc2OC)o1 (single isomer, unassigned) [Compound 410] | – | – | 17.5 nM | 143 nM | > 900 nM | 663 nM | 1390 nM |
| CCC(=O)CCCCC[C@H](NC(=O)C1CC12CCOCC2)c1ncc(-c2cc3ccc(C)nc3cc2OC)[nH]1 (single isomer, unassigned) [Compound 413] | – | – | 16.2 nM | 155 nM | > 900 nM | 348 nM | 1270 nM |
| CCC(=O)CCCCCC(NC(=O)C1CCC2(CC1)OC(=O)c1ncccc12)c1nnc(-c2cc3ccccc3nc2OC)o1 (centres unmarked) [Compound 365] | 1550 nM | 3830 nM | 61.2 nM | 208 nM | 28400 nM | – | – |
| CCC(=O)CCCCC[C@H](NC(=O)[C@H]1CC[C@@]2(CC1)OC(=O)c1cccnc12)c1nnc(-c2cc3ccccc3nc2OC)o1 [Compound 366] | 1500 nM | 5360 nM | 89.4 nM | 321 nM | > 45000 nM | – | – |
| CCC(=O)CCCCC[C@H](NC(=O)[C@H]1CC[C@]2(CC1)OC(=O)c1ncccc12)c1nnc(-c2cc3ccccc3nc2OC)o1 [Compound 367] | 1330 nM | 4490 nM | 25.9 nM | 67.6 nM | 21400 nM | – | – |
| CCC(=O)CCCCC[C@H](NC(=O)[C@H]1CC[C@]2(CC1)OC(=O)c1cccnc12)c1nnc(-c2cc3ccccc3nc2OC)o1 [Compound 368] | 1570 nM | 5240 nM | 50.5 nM | 149 nM | 21700 nM | – | – |
| CCC(=O)CCCCC[C@H](NC(=O)C1=NOC2(CCN(C(C)C)CC2)C1)c1nnc(-c2cc3ccccc3nc2OC)o1 [Compound 369] | 804 nM | 1680 nM | 18.5 nM | 68.2 nM | 19900 nM | – | – |
| CCC(=O)CCCCC[C@H](NC(=O)C1=NOC2(CCN(C)CC2)C1)c1nnc(-c2cc3ccccc3nc2OC)o1 [Compound 370] | 752 nM | 1430 nM | 10.8 nM | 41.8 nM | 8650 nM | – | – |
| CCC(=O)CCCCC[C@H](NC(=O)C1=NOC2(CCN(S(C)(=O)=O)CC2)C1)c1nnc(-c2cc3ccccc3nc2OC)o1 [Compound 371] | 5000 nM | 6040 nM | 86.7 nM | 287 nM | > 45000 nM | – | – |
| CCC(=O)CCCCC[C@H](NC(=O)[C@H]1CC[C@@]2(CC1)OC(=O)c1ccncc12)c1ncc(-c2ccccc2)[nH]1 [Compound 372] | 2650 nM | 5250 nM | 92.5 nM | 416 nM | 7730 nM | – | – |
| CCC(=O)CCCCC[C@H](NC(=O)[C@H]1CC[C@@]2(CC1)OC(=O)c1cnccc12)c1ncc(-c2ccccc2)[nH]1 [Compound 373] | 1650 nM | 5340 nM | 95.6 nM | 423 nM | 6670 nM | – | – |
| CCC(=O)CCCCC[C@H](NC(=O)[C@H]1CC[C@@]2(CC1)OC(=O)c1ncccc12)c1ncc(-c2ccccc2)[nH]1 [Compound 374] | 2580 nM | 5400 nM | 92.7 nM | 423 nM | 8180 nM | – | – |
| CCC(=O)CCCCC[C@H](NC(=O)[C@H]1CC[C@@]2(CC1)OC(=O)c1cccnc12)c1ncc(-c2ccccc2)[nH]1 [Compound 375] | 1450 nM | 9330 nM | 117 nM | 479 nM | 8880 nM | – | – |
| CCC(=O)CCCCC[C@H](NC(=O)[C@H]1CC[C@]2(CC1)OC(=O)c1ccncc12)c1ncc(-c2ccccc2)[nH]1 [Compound 376] | 1860 nM | 3680 nM | 49.9 nM | 239 nM | 4840 nM | – | – |

| SMILES | EC50 (KARN cells (Jurkat 2C4); [1]) | EC50 (KARN cells (Jurkat 2C4); [2]) | IC50 (Recombinant human HDAC1) | IC50 (Recombinant human HDAC2) | IC50 (Recombinant human HDAC8) | EC50 (KARN cells (Jurkat 2C4); [3]) | EC50 (KARN cells (Jurkat 2C4); [4]) |
| --- | --- | --- | --- | --- | --- | --- | --- |
| CCC(=O)CCCCC[C@H](NC(=O)[C@H]1CC[C@]2(CC1)OC(=O)c1cccnc12)c1ncc(-c2ccccc2)[nH]1 [Compound 378] | 1310 nM | 2990 nM | 46 nM | 220 nM | 2960 nM | – | – |
| CCC(=O)CCCCC[C@H](NC(=O)C1=NOC2(CCN(C(C)C)CC2)C1)c1ncc(-c2ccccc2)[nH]1 [Compound 379] | 472 nM | 771 nM | 21.9 nM | 100 nM | 3290 nM | – | – |
| CCC(=O)CCCCC[C@H](NC(=O)C1=NOC2(CCN(C(C)=O)CC2)C1)c1ncc(-c2ccccc2)[nH]1 [Compound 380] | 1920 nM | 2410 nM | 69.8 nM | 326 nM | 6330 nM | – | – |
| CCC(=O)CCCCC[C@H](NC(=O)C1=NOC2(CCN(C(=O)OC)CC2)C1)c1ncc(-c2ccccc2)[nH]1 [Compound 381] | 2740 nM | 6410 nM | 179 nM | 637 nM | 7470 nM | – | – |
| CCC(=O)CCCCC[C@H](NC(=O)C1=NOC2(CCN(C)CC2)C1)c1ncc(-c2ccccc2)[nH]1 [Compound 382] | 665 nM | 1070 nM | 32.9 nM | 146 nM | 6640 nM | – | – |
| CCC(=O)CCCCC[C@H](NC(=O)C1=NOC2(CCN(S(C)(=O)=O)CC2)C1)c1ncc(-c2ccccc2)[nH]1 [Compound 383] | 2620 nM | 3260 nM | 96.5 nM | 427 nM | 8960 nM | – | – |
| CCC(=O)CCCCC[C@H](NC(=O)CCN1C(=O)C(CC)=NC12CCOCC2)c1ncc(-c2ccccc2)[nH]1 [Compound 384] | 2220 nM | 2410 nM | 37.3 nM | 154 nM | 8930 nM | – | – |
| CCC(=O)CCCCC[C@H](NC(=O)C1=NOC2(CCN(C)CC2)C1)c1ncc(-c2cc3ccc(=O)n(C)c3cc2F)o1 [Compound 386] | 934 nM | 1060 nM | 7.82 nM | 54.7 nM | > 900 nM | – | – |
| CCC(=O)CCCCC[C@H](NC(=O)C1=NOC2(CCN(CC3CC3)CC2)C1)c1ncc(-c2cc3ccc(=O)n(C)c3cc2F)o1 [Compound 387] | 1540 nM | 1700 nM | 25.8 nM | 207 nM | > 900 nM | – | – |
| CCC(=O)CCCCC[C@H](NC(=O)[C@H]1CC12CCN(C)CC2)c1ncc(-c2cc3ocnc3cc2F)o1 [Compound 389] | 1120 nM | 1550 nM | 21.4 nM | 98.3 nM | > 900 nM | – | – |
| CCC(=O)CCCCC[C@H](NC(=O)C1=NOC2(CCN(C)CC2)C1)c1ncc(-c2ccc(Cl)cc2OC)o1 [Compound 390] | – | – | 18 nM | 159 nM | > 900 nM | 674 nM | 1680 nM |
| CCC(=O)CCCCC[C@H](NC(=O)C1=NOC2(CCN(C)CC2)C1)c1ncc(-c2ccc(-c3ccccn3)cc2OC)o1 [Compound 391] | 460 nM | 541 nM | 9.57 nM | 74.5 nM | > 900 nM | – | – |
| CCC(=O)CCCCC[C@H](NC(=O)[C@H]1CC12CCN(CC1CC1)CC2)c1ncc(-c2ccc3nc(C)ccc3c2)[nH]1 [Compound 393] | 21 nM | 22 nM | 0.05 nM | 0.1 nM | > 900 nM | – | – |
| CCC(=O)CCCCC[C@H](NC(=O)C1=NOC2(CCN(C)CC2)C1)c1ncc(-c2ccc(-c3ccncc3)cc2OC)o1 [Compound 395] | 618 nM | 725 nM | 2.42 nM | 36.3 nM | > 900 nM | – | – |
| CCC(=O)CCCCC[C@H](NC(=O)C1=NOC2(CCN(C)CC2)C1)c1ncc(-c2cc3ccc(N(C)C)nc3cc2OC)o1 [Compound 397] | 279 nM | 327 nM | 1.36 nM | 6.6 nM | > 900 nM | – | – |
